From PubChem BioAssay AID256 (DTP/NCI, 2004)
Inconclusive results and toxic doses are left out. Rule for the calls: active = survival T/C of 150% or more; inactive = T/C below 125% in these data.

Test system: CD2F1 mice, L1210 leukemia ip, survival T/C
Experiment: NCI In Vivo Anticancer Drug Screen. Data for tumor model L1210 Leukemia (intraperitoneal) in CD2F1 (CDF1) mice
Details: higher = longer survival
Method in brief: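 Ratio T/C, where T is the treated-group value and C the vehicle-dosed control value, from mice implanted with a transplantable tumor.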

[1] = endpoint: median survival time, dose: 25.0 mg/kg/injection, schedule: Q01DX005 (ip), vehicle: saline with Tween-80
[2] = endpoint: median survival time, dose: 50.0 mg/kg/injection, schedule: Q01DX005 (ip), vehicle: saline with Tween-80
[3] = endpoint: median survival time, dose: 100.0 mg/kg/injection, schedule: Q01DX005 (ip), vehicle: saline with Tween-80
[4] = endpoint: mean survival time, dose: 100.0 mg/kg/injection, schedule: Q01DX009 (ip), vehicle: other
[5] = endpoint: mean survival time, dose: 100.0 mg/kg/injection, schedule: Q04DX003 (ip), vehicle: saline with Tween-80
[6] = endpoint: mean survival time, dose: 200.0 mg/kg/injection, schedule: Q04DX003 (ip), vehicle: saline with Tween-80
[7] = endpoint: mean survival time, dose: 400.0 mg/kg/injection, schedule: Q04DX003 (ip), vehicle: saline with Tween-80
[8] = endpoint: mean survival time, dose: 50.0 mg/kg/injection, schedule: Q01DX009 (ip), vehicle: saline with Tween-80
[9] = endpoint: mean survival time, dose: 100.0 mg/kg/injection, schedule: Q01DX009 (ip), vehicle: saline with Tween-80
[10] = endpoint: mean survival time, dose: 200.0 mg/kg/injection, schedule: Q01DX009 (ip), vehicle: saline with Tween-80
[11] = endpoint: mean survival time, dose: 50.0 mg/kg/injection, schedule: Q04DX002 (ip), vehicle: saline
[12] = endpoint: mean survival time, dose: 100.0 mg/kg/injection, schedule: Q04DX002 (ip), vehicle: saline
[13] = endpoint: mean survival time, dose: 100.0 mg/kg/injection, schedule: Q01DX009 (ip), vehicle: water
[14] = endpoint: mean survival time, dose: 25.0 mg/kg/injection, schedule: Q01DX009 (ip), vehicle: water
[15] = endpoint: mean survival time, dose: 50.0 mg/kg/injection, schedule: Q01DX009 (ip), vehicle: water
[16] = endpoint: mean survival time, dose: 12.5 mg/kg/injection, schedule: Q01DX009 (ip), vehicle: saline with Tween-80
[17] = endpoint: mean survival time, dose: 25.0 mg/kg/injection, schedule: Q01DX009 (ip), vehicle: saline with Tween-80

Measured: T/C

OC1OCC(COc2ccc(Cl)cc2)OC1O (stereo not given)
inactive: [1] 102 % of control | [2] 102 % of control | [3] 115 % of control | endpoint: median survival time, dose: 144.0 mg/kg/injection, schedule: Q01DX005 (ip), vehicle: saline with Tween-80 102 % of control | endpoint: median survival time, dose: 200.0 mg/kg/injection, schedule: Q01DX005 (ip), vehicle: saline with Tween-80 117 % of control | endpoint: median survival time, dose: 240.0 mg/kg/injection, schedule: Q01DX005 (ip), vehicle: saline with Tween-80 101 % of control | endpoint: median survival time, dose: 400.0 mg/kg/injection, schedule: Q01DX005 (ip), vehicle: saline with Tween-80 96 % of control

O=[N+]([O-])c1ccc2ncccc2c1
inactive: endpoint: mean survival time, dose: 25.0 mg/kg/injection, schedule: Q01DX009 (ip), vehicle: other 101 % of control | endpoint: mean survival time, dose: 50.0 mg/kg/injection, schedule: Q01DX009 (ip), vehicle: other 105 % of control | [4] 104 % of control

O=C(Nc1ccc2c3c(cccc13)C=C2)c1ccccc1
inactive: [5] 96 % of control | [6] 93 % of control | [7] 93 % of control

O=C(OC1C=CC2CCC1C2)c1ccc([N+](=O)[O-])cc1 (stereo not given)
inactive: [8] 98 % of control | [9] 94 % of control | [5] 87 % of control | [10] 93 % of control | [6] 87 % of control

Cc1ccc(C(=Nc2ccccc2)N=P(c2ccccc2)(c2ccccc2)c2ccccc2)cc1
inactive: endpoint: median survival time, dose: 12.5 mg/kg/injection, schedule: Q01DX005 (ip), vehicle: saline with Tween-80 102 % of control | [1] 105 % of control | [2] 105 % of control | [3] 91 % of control

COC(=O)C(C)=O
inactive: endpoint: mean survival time, dose: 100.0 mg/kg/injection, schedule: Q04DX003 (ip), vehicle: saline 97 % of control | endpoint: mean survival time, dose: 200.0 mg/kg/injection, schedule: Q04DX003 (ip), vehicle: saline 100 % of control | endpoint: mean survival time, dose: 400.0 mg/kg/injection, schedule: Q04DX003 (ip), vehicle: saline 102 % of control

CC(SC(=N)N)C(=N)N (stereo not given)
inactive: endpoint: mean survival time, dose: 25.0 mg/kg/injection, schedule: Q04DX002 (ip), vehicle: saline 97 % of control | [11] 90 % of control | [12] 105 % of control

CC(=O)NNC(=O)c1ccccn1
inactive: endpoint: mean survival time, dose: 12.5 mg/kg/injection, schedule: Q01DX009 (ip), vehicle: saline 114 % of control | endpoint: mean survival time, dose: 25.0 mg/kg/injection, schedule: Q01DX009 (ip), vehicle: saline 110 % of control | endpoint: mean survival time, dose: 50.0 mg/kg/injection, schedule: Q01DX009 (ip), vehicle: saline 104 % of control | endpoint: mean survival time, dose: 50.0 mg/kg/injection, schedule: Q#A X018 (ip), vehicle: water 103 % of control | endpoint: mean survival time, dose: 100.0 mg/kg/injection, schedule: Q01DX001 (ip), vehicle: water 101 % of control | endpoint: mean survival time, dose: 100.0 mg/kg/injection, schedule: Q01DX009 (ip), vehicle: saline 104 % of control | [13] 110 % of control | endpoint: mean survival time, dose: 100.0 mg/kg/injection, schedule: Q01DX009 (sc), vehicle: water 119 % of control | endpoint: mean survival time, dose: 200.0 mg/kg/injection, schedule: Q01DX001 (ip), vehicle: water 109 % of control | endpoint: mean survival time, dose: 200.0 mg/kg/injection, schedule: Q01DX009 (sc), vehicle: water 122 % of control

CCCCCCCCCCCSSCCCCCCCCCCC
inactive: [4] 101 % of control | endpoint: mean survival time, dose: 200.0 mg/kg/injection, schedule: Q01DX009 (ip), vehicle: other 100 % of control | endpoint: mean survival time, dose: 400.0 mg/kg/injection, schedule: Q01DX009 (ip), vehicle: other 111 % of control

O=C1C(Cc2ccccc2)CCCC1Cc1ccccc1 (stereo not given)
inactive: endpoint: mean survival time, dose: 100.0 mg/kg/injection, schedule: Q01DX001 (ip), vehicle: saline with Tween-80 100 % of control | endpoint: mean survival time, dose: 200.0 mg/kg/injection, schedule: Q01DX001 (ip), vehicle: saline with Tween-80 98 % of control | endpoint: mean survival time, dose: 400.0 mg/kg/injection, schedule: Q01DX001 (ip), vehicle: saline with Tween-80 102 % of control

CC(=O)OCC1OC(n2ncc3c(NCc4ccco4)ncnc32)C(O)C1O (stereo not given)
inactive: [14] 109 % of control | [15] 97 % of control | [13] 111 % of control | endpoint: mean survival time, dose: 200.0 mg/kg/injection, schedule: Q01DX009 (ip), vehicle: water 102 % of control | endpoint: mean survival time, dose: 400.0 mg/kg/injection, schedule: Q01DX009 (ip), vehicle: water 86 % of control

CC(=O)c1cccc(N=C(N)N)c1
inactive: endpoint: mean survival time, dose: 75.0 mg/kg/injection, schedule: Q01DX001 (ip), vehicle: saline with Tween-80 98 % of control | endpoint: mean survival time, dose: 150.0 mg/kg/injection, schedule: Q01DX001 (ip), vehicle: saline with Tween-80 96 % of control | endpoint: mean survival time, dose: 300.0 mg/kg/injection, schedule: Q01DX001 (ip), vehicle: saline with Tween-80 97 % of control

NC(CS)=NC1CN2CCC1CC2 (stereo not given)
inactive: [11] 115 % of control | [12] 101 % of control

CC(C)c1ccc(C(=O)CCCCl)cc1
inactive: [9] 98 % of control | [10] 97 % of control | endpoint: mean survival time, dose: 400.0 mg/kg/injection, schedule: Q01DX009 (ip), vehicle: saline with Tween-80 97 % of control

CN(C=O)NC(=O)Nc1ccccc1
inactive: endpoint: mean survival time, dose: 75.0 mg/kg/injection, schedule: Q01DX001 (ip), vehicle: saline 100 % of control | endpoint: mean survival time, dose: 150.0 mg/kg/injection, schedule: Q01DX001 (ip), vehicle: saline 100 % of control | endpoint: mean survival time, dose: 300.0 mg/kg/injection, schedule: Q01DX001 (ip), vehicle: saline 102 % of control

O=S(O)c1ccccc1
inactive: endpoint: mean survival time, dose: 100.0 mg/kg/injection, schedule: Q01DX001 (ip), vehicle: saline 92 % of control | endpoint: mean survival time, dose: 200.0 mg/kg/injection, schedule: Q01DX001 (ip), vehicle: saline 94 % of control | endpoint: mean survival time, dose: 400.0 mg/kg/injection, schedule: Q01DX001 (ip), vehicle: saline 110 % of control

COc1ccc(C(C)N=CC(C)(C)C)cc1 (stereo not given)
inactive: [6] 100 % of control | [7] 88 % of control

CCOC(=O)N/N=C/C(Br)=C\c1ccccc1
inactive: [16] 97 % of control | [17] 92 % of control | [8] 92 % of control

C/C(=N/N)c1ccc(Br)cc1
inactive: endpoint: mean survival time, dose: 6.25 mg/kg/injection, schedule: Q01DX009 (ip), vehicle: saline with Tween-80 106 % of control | endpoint: mean survival time, dose: 6.25 mg/kg/injection, schedule: Q04DX003 (ip), vehicle: saline with Tween-80 101 % of control | [16] 116 % of control | endpoint: mean survival time, dose: 12.5 mg/kg/injection, schedule: Q04DX003 (ip), vehicle: saline with Tween-80 98 % of control | [17] 110 % of control | endpoint: mean survival time, dose: 25.0 mg/kg/injection, schedule: Q04DX003 (ip), vehicle: saline with Tween-80 95 % of control

CC1=C(C)CN(c2ccccc2)SC1
inactive: [5] 98 % of control | [6] 98 % of control | [7] 98 % of control

CC(C)(CCC(C)(C)NCCCN)NCCCN
inactive: endpoint: mean survival time, dose: 12.5 mg/kg/injection, schedule: Q01DX009 (ip), vehicle: water 94 % of control | [14] 97 % of control | [15] 109 % of control
